This is an account of results in patent US11590147B2, “17-hydroxyprogesterone ester-containing oral compositions and related methods” (Lipocine Inc., priority 2015, dated 2023).

Series [1] is described as follows: Phase 1b open-label pharmacokinetic study in healthy pregnant women (single dose data and simulated steady state). The class given is in vivo, human (pregnant women). The settings on record: for Cmax / AUC(0-t): female, human, in vivo, N = 7; for Cmax / AUC(0-t) / AUCSS / Css, max: pregnant women; for AUC(0-t): read-out: AUC0-24; for AUCSS / Css, max: simulated steady state; for AUCSS: 1 week duration. How it is done:
Formulations (e.g., oral dosage forms like those described herein) were used in a Phase 1b open-label study that enrolled eight healthy; pregnant women at 16 to 18 weeks gestation. All subjects received three treatments in sequence. In period one, subjects received two doses of 400 mg with oral dosage forms like those described herein, administered 12 hours apart. In period two, subjects received two doses of 800 mg oral with dosage forms like those described herein, administered 12 hours apart. In period three, subjects were given 250 mg of HPC via intramuscular injection (marketed product Makena®). Blood samples were collected periodically over 24 hours following oral dosing and over 28 days following the IM dose.
Steady state pharmacokinetic parameters for oral and IM dosing regimens were simulated based on single dose data and the Cmax and […] values are shown in the table below.

The conditions of series [2]: cited from earlier work.
For series [3] the following is noted: Saxton et al. 2004; Greene NEJM; cited from earlier work.
The mark [4] stands for this setting: oral 400 mg BID (two doses 12 hours apart).
Setting [5] is: oral 800 mg BID (two doses 12 hours apart).

Read-outs that look alike come from different tables or passages of the source. Where only a bound is given, the exact number is not on record here.

With `CCCCCC(=O)O[C@]1(C(C)=O)CC[C@H]2[C@@H]3CCC4=CC(=O)CC[C@]4(C)[C@H]3CC[C@@]21C` [Example 17HPC, 17-hydroxyprogesterone caproate], in series [1] (800 mg dose vs 400 mg dose, oral), the “increase in exposure with dose” value is listed as “more than dose proportional increase in exposure”. For the same compound, in series [1] (setting [4]), the highest level (Cmax) was 21.3 ng/mL and the AUC(0-t) was 156 ng·h/mL. In addition, in series [1] (setting [5]), the concentration peaked (Cmax) at 63.2 ng/mL and the AUC(0-t) is 577 ng·h/mL. Moreover, the “absorption following oral administration” value in series [1] (healthy pregnant women) is “significant HPC absorption”. Besides, in series [1] (oral 400 mg BID), the AUCSS was 1074 ng·h/mL and the “Css, max” value was 21.6 ng/mL. For the same compound, in series [1] (oral 800 mg BID), the AUCSS was 4058 ng·h/mL and the “Css, max” value was 71.1 ng/mL. Besides, in series [2], the solubility in water was < 0.02 µg/mL. Besides, in series [3], the oral activity result was “no oral activity”.
